PMC12186844 (ACS Chemical Neuroscience, 2025)
Positions count from the first letter of the chain named. Like-named read-outs stand apart in the source and are kept apart here.

Legend:
[1] = test system: 6-OHDA contralateral turning model; settings: with subeffective dose of L-DOPA; earlier report, reference number not given; cited from earlier work
D2LR = D2LR (Homo sapiens, UniProt P14416); experiment: whole cell [3H]raclopride binding assay
Protocol: The binding reaction was conducted in HBSS for 1 h at 37 °C. The adherent cells were washed two times with cold 0.9% NaCl solution, and 100 μL/well scintilation liquid was added to the plate. The remaining radioactivity was detected in a MicroBeta counter.

D3R = D3R (Homo sapiens, UniProt P35462); experiment: cell membrane [3H]raclopride binding assay
D3R, sequence (P35462 whole entry): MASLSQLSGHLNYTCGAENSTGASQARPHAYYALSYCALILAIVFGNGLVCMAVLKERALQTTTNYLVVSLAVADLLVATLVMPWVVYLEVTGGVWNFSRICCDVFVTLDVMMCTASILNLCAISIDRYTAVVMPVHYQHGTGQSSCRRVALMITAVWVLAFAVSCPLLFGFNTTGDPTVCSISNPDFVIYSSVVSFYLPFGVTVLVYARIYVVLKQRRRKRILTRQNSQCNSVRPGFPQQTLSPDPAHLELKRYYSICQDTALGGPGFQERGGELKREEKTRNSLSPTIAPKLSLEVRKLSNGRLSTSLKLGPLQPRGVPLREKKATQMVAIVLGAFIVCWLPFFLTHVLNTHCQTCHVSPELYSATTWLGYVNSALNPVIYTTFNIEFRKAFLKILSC
Protocol: (§1) Flp-In-CHO cells stably expressing the wild-type or mutant DRs were grown to 90% confluence in 175 cm^2 cell culture flasks. The cells were harvested in PBS containing 2 mM EDTA and centrifuged at 300g for 3 min. The resulting pellet was resuspended in ice-cold assay buffer (20 mM HEPES, 100 mM NaCl, 6 mM MgCl2, 1 mM EGTA, and 1 mM EDTA, pH 7.4), and the centrifugation step was repeated. The intact cell pellet was then resuspended in assay buffer and homogenized using a Polytron homogenizer. After centrifugation (1000g, 10 min), the pellet was discarded, and the supernatant was recentrifuged at 30,000g for 1 h at 4 °C using a Sorvall Evolution RC ultracentrifuge (Thermo Scientific). The resulting pellet was resuspended in assay buffer and stored in 250 μL aliquots at −80 °C. Membrane protein concentration was determined using a Pierce’s BCA protein assay kit (Thermo Fisher, Melbourne).
[^3H]­Spiperone binding experiments using cell membranes were conducted in a 200 μL reaction volume in assay buffer (20 mM HEPES, 100 mM NaCl, 6 mM MgCl2, 1 mM EGTA, and 1 mM EDTA, pH 7.4) containing 100 μM GppNHp and 0.1% ascorbic acid in 96-well plates. […] In all cases, nonspecific binding was determined in the presence of 10 μM haloperidol. To obtain affinity estimates of unlabeled agonists, competition binding experiments were performed at equilibrium. […] After this incubation period, bound and free radioligands were separated by fast-flow filtration through UniFilter-96 GF/B plates using a MicroBeta FilterMate harvester (Revvity) followed by three washes with ice-cold 0.9% NaCl. Filter bound radioactivity was detected as a chemiluminescence after the addition of MicroScint-20 (Revvity) in a MicroBeta plate counter (Revvity).

SNAP-D2SR I128^3.46A = target: T1, SNAP-D2SR I128^3.46A (Homo sapiens, UniProt P14416, I128A); experiment: functional cAMP assay, BRET biosensor; type: cell-based
T1 sequence (P14416 1-414 isoform P14416-2 I128A): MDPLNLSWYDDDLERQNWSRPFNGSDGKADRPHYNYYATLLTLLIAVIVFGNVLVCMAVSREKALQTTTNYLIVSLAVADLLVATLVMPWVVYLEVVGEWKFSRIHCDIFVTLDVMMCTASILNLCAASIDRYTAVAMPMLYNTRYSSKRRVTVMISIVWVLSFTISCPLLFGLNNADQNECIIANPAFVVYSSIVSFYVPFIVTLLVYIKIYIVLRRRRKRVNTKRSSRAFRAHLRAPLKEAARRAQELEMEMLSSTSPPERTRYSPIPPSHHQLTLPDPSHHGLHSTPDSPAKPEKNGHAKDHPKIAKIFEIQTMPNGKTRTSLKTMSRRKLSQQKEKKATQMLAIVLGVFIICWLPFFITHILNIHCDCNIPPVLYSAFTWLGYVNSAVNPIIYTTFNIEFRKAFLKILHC
Protocol: (§2) Flp-In-CHO cells stably coexpressing the CAMYEL biosensor and DRs were plated into white 96-well CulturPlates (Revvity) and grown overnight. The cells were equilibrated in Hank’s balanced salt solution (HBSS) at 37 °C (or 25 °C when indicated) before starting the experiment. The cells were costimulated with the agonists and 10 μM forskolin for the indicated time frames when the BRET readings were captured. Coelenterazine (Nanolight Technology, AZ) was added at a final concentration of 5 μM at least 3 min prior to measurement. […] Net BRET was determined by subtraction of the vehicle control coadded with 10 μM forskolin.
(§3) Dose–response curves were fitted using the following three-parameter equation: response=bottom+top−bottom/1+10^(logEC50−log[A]) 5 where top and bottom represent the maximal and minimal asymptote of the dose response curve, [A] is the molar concentration of the agonist, and EC50 is the molar concentration of the agonist required to give a response half-way between bottom and top.

SNAP-D2SR E95^2.65A = SNAP-D2SR E95^2.65A (Homo sapiens, UniProt P14416, E95A); experiment: functional cAMP assay, BRET biosensor; type: cell-based
SNAP-D2SR E95^2.65A, sequence (P14416 1-414 isoform P14416-2 E95A): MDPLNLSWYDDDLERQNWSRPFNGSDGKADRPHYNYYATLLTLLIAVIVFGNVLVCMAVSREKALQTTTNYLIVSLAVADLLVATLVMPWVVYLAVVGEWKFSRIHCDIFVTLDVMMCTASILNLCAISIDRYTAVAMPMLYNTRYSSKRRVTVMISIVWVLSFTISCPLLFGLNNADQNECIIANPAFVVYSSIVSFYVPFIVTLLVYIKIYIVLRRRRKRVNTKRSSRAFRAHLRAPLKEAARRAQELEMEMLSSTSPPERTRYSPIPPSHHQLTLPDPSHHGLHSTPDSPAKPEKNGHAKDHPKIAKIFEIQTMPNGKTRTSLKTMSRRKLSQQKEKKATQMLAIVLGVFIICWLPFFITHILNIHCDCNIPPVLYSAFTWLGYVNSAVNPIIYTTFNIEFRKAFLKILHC
Protocol: Flp-In-CHO cells stably coexpressing the CAMYEL biosensor and DRs were plated into white 96-well CulturPlates (Revvity) and grown overnight. The cells were equilibrated in Hank’s balanced salt solution (HBSS) at 37 °C (or 25 °C when indicated) before starting the experiment. The cells were costimulated with the agonists and 10 μM forskolin for the indicated time frames when the BRET readings were captured. Coelenterazine (Nanolight Technology, AZ) was added at a final concentration of 5 μM at least 3 min prior to measurement. […] Net BRET was determined by subtraction of the vehicle control coadded with 10 μM forskolin. For phenoxybenzamine alkylation experiments, the cells were treated with 0.1, 0.3, or 1 μM phenoxybenzamine (Sigma-Aldrich) diluted in HBSS and equilibrated at 37 °C for 30 min prior to the commencement of the assay.
as §3

SNAP-D2SR N52^1.50A = SNAP-D2SR N52^1.50A (Homo sapiens, UniProt P14416, N52A); experiment: functional cAMP assay, BRET biosensor; type: cell-based
SNAP-D2SR N52^1.50A, sequence (P14416 1-414 isoform P14416-2 N52A): as the sequence (P14416 1-414 isoform P14416-2 E95A) above, with N52A, A95E counted along it
Protocol: as §2, §3

SNAP-D2SR L54^1.52A = SNAP-D2SR L54^1.52A (Homo sapiens, UniProt P14416, L54A); experiment: cell membrane [3H]spiperone assay
SNAP-D2SR L54^1.52A, sequence (P14416 1-414 isoform P14416-2 L54A): as the sequence (P14416 1-414 isoform P14416-2 E95A) above, with L54A, A95E counted along it
Protocol: as §1
(§4) [^3H]­Spiperone binding experiments using cell membranes were conducted in a 200 μL reaction volume in assay buffer (20 mM HEPES, 100 mM NaCl, 6 mM MgCl2, 1 mM EGTA, and 1 mM EDTA, pH 7.4) containing 100 μM GppNHp and 0.1% ascorbic acid in 96-well plates. […] In all cases, nonspecific binding was determined in the presence of 10 μM haloperidol. […] Filter bound radioactivity was detected as a chemiluminescence after the addition of MicroScint-20 (Revvity) in a MicroBeta plate counter (Revvity). […]

SNAP-D2SR F404^8.50A = SNAP-D2SR F404^8.50A (Homo sapiens, UniProt P14416, F433A); experiment: cell membrane [3H]spiperone assay
SNAP-D2SR F404^8.50A, sequence (P14416 1-414 isoform P14416-2 F404A): as the sequence (P14416 1-414 isoform P14416-2 E95A) above, with A95E, F404A counted along it
Protocol: as §1, §4

D4.4R = D4.4R (Homo sapiens, UniProt P21917); experiment: cell membrane [3H]spiperone binding assay
D4.4R, sequence (P21917 whole entry): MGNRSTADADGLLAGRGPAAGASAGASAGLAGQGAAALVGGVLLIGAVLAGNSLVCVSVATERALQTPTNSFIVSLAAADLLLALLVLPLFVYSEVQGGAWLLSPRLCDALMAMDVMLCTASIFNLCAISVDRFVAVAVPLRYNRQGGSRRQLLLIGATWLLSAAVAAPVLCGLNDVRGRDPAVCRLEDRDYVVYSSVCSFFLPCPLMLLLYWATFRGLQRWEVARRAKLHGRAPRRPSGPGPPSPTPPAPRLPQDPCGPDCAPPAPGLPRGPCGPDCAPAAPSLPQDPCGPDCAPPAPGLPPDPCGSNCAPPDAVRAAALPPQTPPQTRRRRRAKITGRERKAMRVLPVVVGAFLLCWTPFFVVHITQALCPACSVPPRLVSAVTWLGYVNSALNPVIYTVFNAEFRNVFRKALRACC
Protocol: as §1
[^3H]­Spiperone binding experiments using cell membranes were conducted in a 200 μL reaction volume in assay buffer (20 mM HEPES, 100 mM NaCl, 6 mM MgCl2, 1 mM EGTA, and 1 mM EDTA, pH 7.4) containing 100 μM GppNHp and 0.1% ascorbic acid in 96-well plates. […] In all cases, nonspecific binding was determined in the presence of 10 μM haloperidol. […] Filter bound radioactivity was detected as a chemiluminescence after the addition of MicroScint-20 (Revvity) in a MicroBeta plate counter (Revvity).

SNAP-D2SR F50^1.48A = SNAP-D2SR F50^1.48A (Homo sapiens, UniProt P14416, F50A); experiment: functional cAMP assay, BRET biosensor; type: cell-based; design: expressed in transfected cells
SNAP-D2SR F50^1.48A, sequence (P14416 1-414 isoform P14416-2 F50A): as the sequence (P14416 1-414 isoform P14416-2 E95A) above, with F50A, A95E counted along it
Protocol: as §2, §3

SNAP-D2SR S121^3.39A = target: T2, SNAP-D2SR S121^3.39A (Homo sapiens, UniProt P14416, S121A); experiment: cell membrane [3H]spiperone assay
T2 sequence (P14416 1-414 isoform P14416-2 S121A): T1 sequence (P14416 1-414 isoform P14416-2 I128A) with S121A, A128I
Protocol: as §1, §4

[2] = cooperativity with [3H]raclopride
[3] = cooperativity with aripiprazole
[4] = cooperativity with bromocriptine
[5] = orthosteric ligand [3H]raclopride
[6] = orthosteric ligand aripiprazole
[7] = orthosteric ligand bromocriptine
[8] = titration of D2 PAM2 vs [3H]raclopride
[9] = titration, cooperativity with [3H]raclopride
[10] = read-out: D2 PAM2 KB (converted)

D2LR, sequence (P14416 whole entry): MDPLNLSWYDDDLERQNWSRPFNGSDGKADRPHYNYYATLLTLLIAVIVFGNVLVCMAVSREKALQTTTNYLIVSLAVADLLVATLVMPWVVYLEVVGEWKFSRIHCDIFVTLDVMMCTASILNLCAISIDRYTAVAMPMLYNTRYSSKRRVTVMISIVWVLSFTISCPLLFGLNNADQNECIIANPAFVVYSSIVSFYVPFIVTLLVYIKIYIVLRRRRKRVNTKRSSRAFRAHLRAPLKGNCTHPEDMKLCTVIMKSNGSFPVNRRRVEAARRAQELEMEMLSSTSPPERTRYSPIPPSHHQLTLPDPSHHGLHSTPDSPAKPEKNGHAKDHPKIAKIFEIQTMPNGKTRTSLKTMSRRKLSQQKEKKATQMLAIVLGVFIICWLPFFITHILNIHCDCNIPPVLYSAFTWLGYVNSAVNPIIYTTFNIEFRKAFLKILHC

COc1cc(CO)c(F)cc1C(=O)n1ccc2c(F)cccc21 [D2 PAM2, [5-fluoro-4-(hydroxymethyl)-2-methoxyphenyl]-(4-fluoro-1H-indol-1-yl)methanone]
effect on L-DOPA in a rodent model of Parkinson's disease [1]: potentiate a subeffective dose of L-DOPA
fold inhibition of [3H]raclopride affinity (D2LR): 2.43 fold
Logα (D2LR; cooperativity with S-(3)-PPP): 0.40 ± 0.11
α (D2LR; cooperativity with S-(3)-PPP): 2.5
Logα (D2LR; [2]): -0.39 ± 0.12
α (D2LR; [2]): −0.39
α (D2LR; cooperativity with [3H]raclopride, listed as D2 PAM): 0.41
Logα (D2LR; cooperativity with apomorphine): 1.05 ± 0.11
α (D2LR; cooperativity with apomorphine): 11
Logα (D2LR; [3]): 0.43 ± 0.10
α (D2LR; [3]): 2.7
Logα (D2LR; [4]): 0.27 ± 0.07
α (D2LR; [4]): 1.9
Logα (D2LR; cooperativity with dopamine): 1.33 ± 0.10
α (D2LR; cooperativity with dopamine): 22
α (D2LR; cooperativity with dopamine, listed as D2 PAM): 21
Logα (D2LR; cooperativity with lisuride): 0.55 ± 0.04
α (D2LR; cooperativity with lisuride): 3.5
Logα (D2LR; cooperativity with pergolide): 1.24 ± 0.14
α (D2LR; cooperativity with pergolide): 17
Logα (D2LR; cooperativity with pramipexole): 1.21 ± 0.11
α (D2LR; cooperativity with pramipexole): 16
Logα (D2LR; cooperativity with ropirinole): 1.14 ± 0.11
α (D2LR; cooperativity with ropirinole): 14
Logα (D2LR; cooperativity with rotigotine): 1.37 ± 0.09
α (D2LR; cooperativity with rotigotine): 23
Kb (D2LR; orthosteric ligand S-(3)-PPP): 5.12 µM
pKB (D2LR; orthosteric ligand S-(3)-PPP): 5.29 ± 0.05
Kb (D2LR; [5]): 5.5 µM
pKB (D2LR; [5]): 5.26 ± 0.10
Kb (D2LR; orthosteric ligand apomorphine): 6.31 µM
pKB (D2LR; orthosteric ligand apomorphine): 5.20 ± 0.10
Kb (D2LR; [6]): 7.24 µM
pKB (D2LR; [6]): 5.14 ± 0.04
Kb (D2LR; [7]): 8.12 µM
pKB (D2LR; [7]): 5.09 ± 0.13
Kb (D2LR; orthosteric ligand dopamine): 5.5 µM
pKB (D2LR; orthosteric ligand dopamine): 5.26 ± 0.10
Kb (D2LR; orthosteric ligand lisuride): 5.62 µM
pKB (D2LR; orthosteric ligand lisuride): 5.25 ± 0.07
Kb (D2LR; orthosteric ligand pergolide): 8.32 µM
pKB (D2LR; orthosteric ligand pergolide): 5.08 ± 0.10
Kb (D2LR; orthosteric ligand pramipexole): 6.92 µM
pKB (D2LR; orthosteric ligand pramipexole): 5.16 ± 0.11
Kb (D2LR; orthosteric ligand ropirinole): 8.71 µM
pKB (D2LR; orthosteric ligand ropirinole): 5.06 ± 0.06
Kb (D2LR; orthosteric ligand rotigotine): 4.68 µM
pKB (D2LR; orthosteric ligand rotigotine): 5.33 ± 0.14
Kb (D2LR; read-out: Kb, affinity for the unoccupied receptor, DA competition, allosteric ternary complex model): 5.5 µM
Kb (D2LR; [8]): 5.5 µM
pKb (D2LR; [8]): 5.26
Logα (D2LR; [9]): -0.37
α (D2LR; [9]): 0.43
Kb (D3R): 17 µM
logα_DA (D3R): 0.98 ± 0.02
logα_[3H]raclo (D3R): -0.14 ± 0.04
pKB (D3R): 4.77 ± 0.14
α_DA (D3R): 9.5
α_[3H]raclo (D3R): 0.72
D2 PAM2 log τ (SNAP-D2SR I128^3.46A): –3
D2 PAM2 pKB (SNAP-D2SR I128^3.46A): 4.90 ± 0.18
Kb (SNAP-D2SR I128^3.46A; [10]): 13 µM
D2 PAM2 log αβ (SNAP-D2SR I128^3.46A; with DA): 1.63 ± 0.17
D2 PAM2 αβ (SNAP-D2SR I128^3.46A; with DA): 43
Kb (SNAP-D2SR E95^2.65A): 3.2 µM
Logτ (SNAP-D2SR E95^2.65A): -0.46 ± 0.07
pKB (SNAP-D2SR E95^2.65A): 5.49 ± 0.12
τ (SNAP-D2SR E95^2.65A): 0.35
Logαβ (SNAP-D2SR E95^2.65A; with DA): 1.07 ± 0.10
αβ (SNAP-D2SR E95^2.65A; with DA): 11.7
D2 PAM2 log τ (SNAP-D2SR N52^1.50A): 0.23 ± 0.07
D2 PAM2 pKB (SNAP-D2SR N52^1.50A): 4.89 ± 0.21
D2 PAM2 τ (SNAP-D2SR N52^1.50A): 1.69
Kb (SNAP-D2SR N52^1.50A; [10]): 12.8 µM
D2 PAM2 log αβ (SNAP-D2SR N52^1.50A; with DA): 1.18 ± 0.28
D2 PAM2 αβ (SNAP-D2SR N52^1.50A; with DA): 15
fold shift + 10 μM PAM (SNAP-D2SR L54^1.52A; shift of DA IC50): 1.3 fold
ΔpIC50 + 10 μM PAM (SNAP-D2SR L54^1.52A; shift of DA pIC50): 0.10 ± 0.11
fold shift + 10 μM PAM (SNAP-D2SR F404^8.50A; shift of DA IC50): 1.5 fold
ΔpIC50 + 10 μM PAM (SNAP-D2SR F404^8.50A; shift of DA pIC50): 0.19 ± 0.18
ability to potentiate DA binding at the D4R (D4.4R): no activity was observed
D2 PAM2 log τ (SNAP-D2SR F50^1.48A): –1.35 ± 0.22
D2 PAM2 pKB (SNAP-D2SR F50^1.48A): 5.32 ± 0.28
D2 PAM2 τ (SNAP-D2SR F50^1.48A): 0.04
fold decrease in cooperativity with DA (SNAP-D2SR F50^1.48A; cAMP): 7 fold
Kb (SNAP-D2SR F50^1.48A; [10]): 5 µM
D2 PAM2 log αβ (SNAP-D2SR F50^1.48A; with DA): 0.39 ± 0.07
D2 PAM2 αβ (SNAP-D2SR F50^1.48A; with DA): 2.5
fold shift + 10 μM PAM (SNAP-D2SR S121^3.39A; shift of DA IC50): 2.6 fold
ΔpIC50 + 10 μM PAM (SNAP-D2SR S121^3.39A; shift of DA pIC50): 0.41 ± 0.18
